Molecules are shown by their SMILES.

We go through 3 compounds from patent EP0618207B1, “Substituted pyridopyrimidines as antihypertensives” (AMERICAN HOME PRODUCTS CORPORATION, priority 1993, dated 1994).

Data set [1] relates to Goldblatt (2K-1C) hypertensive rat model. The experiment in a line: Goldblatt (2K-1C) hypertensive rat model, antihypertensive action. It is filed as in vivo, Sprague-Dawley rats. The method, then:
In further accordance with their ability to antagonize angiotensin II, the compounds of this invention show antihypertensive action in the following Goldblatt (2K-1C) hypertensive rat model. Sprague-Dawley rats weighing 150 g were anesthetized with pentobarbital (50 mg/kg ip) and the left renal artery was clipped with a silver wire bent to an internal diameter of 0.2 mm. The hypertension was established 4-7 weeks after clipping. At that time, the animals were anesthetized with pentobarbital (50 mg/kg ip) and the right carotid artery was cannulated. The catheter was passed subcutaneously to the dorsal side of the neck and exteriorized. The animals were fasted overnight but allowed access to water and the experiment was performed the next morning. The carotid catheter was connected to a blood pressure transducer which was linked to a MI^2 computer data acquisition system or to a Grass or Beckman recorder for the recording of mean arterial pressure (MAP) and heart rate. For oral administration, the rats were given either a compound of the invention (1, 3 or 10 mg/kg), losartan (30 mg/kg) as a standard or vehicle (0.5% methyl cellulose in distilled water) by gastric gavage (ig) in a volume of 5 mL/kg. For intravenous administration, the rats were given either a compound of the invention (0.03, 0.1, 1, 3 or 10 mg/kg) or vehicle (≦50% NaHCO3 in distilled water) in a volume of 1 mL/kg. In all experiments, saline was infused into the arterial cannula at 5 µL/min throughout the experiment to maintain patency of the cannula. Each compound was administered to a separate group of 6-12 rats and MAP and heart rate were recorded for 24 h. […] At each time point following dosing, averages were determined for absolute MAP, change in MAP (in mm Hg), and heart rate for all animals, and the standard error of the mean was calculated.

Data set [2] can be described thus: metabolic studies in rats. It is filed as in vivo.
A further data set has as its system A II-infused rat model. Kind of data set: A II-infused rat model, antihypertensive action. In kind it is in vivo, Rats. The note with it: 3 mg/kg id, four hours post-administration. The protocol: In accordance with their ability to antagonize angiotensin II, the compounds of this invention show antihypertensive action in the following A II-infused rat model. Rats are anesthetized with Dial-Urethane (0.60 mL/kg, ip) and the trachea cannulated with PE 240. Either one femoral artery and both femoral veins or the carotid artery and the corresponding jugular vein are cannulated with PE 50. If the jugular vein is cannulated, two cannulas are placed in the one vein. The initial portion of the duodenum (just distal to the stomach) is cannulated with PE 50 via a small midline incision. Arterial pressure and heart rate are measured from the arterial cannula. Ten to 15 min are allowed following surgery for stabilization of arterial pressure. Ganglion blockade is then produced by intravenous administration of mecamylamine at 3 mg/kg (1 mL/kg of a 3 mg/mL solution). Ganglion blockade causes a fall in arterial pressure of about 50 mmHg. Mecamylamine is given every 90 min throughout the remainder of the experiment. An A II infusion is then begun into the other venous cannula at 0.25 µg/kg/min (at 9.6 µL/min). The A II infusion returns arterial pressure to or slightly above the control level. Once arterial pressure has stabilized with the A II infusion, baseline values for mean arterial pressure (MAP) and heart rate are taken. […]

As for `Cc1nc(C)c2c(O)cc(=O)n(Cc3ccc(-c4ccccc4-c4nnn[nH]4)cc3)c2n1` [Example 4, 2,4-Dimethyl-5-hydroxy-8-[2'-(1H-tetrazol-5-yl)biphenyl-4-ylmethyl]-8H-pyrido[2,3-d]pyrimidin-7-one Sesquihydrate], the “maximum decrease in MAP” value in data set [1] (0.1 mg/kg iv, 4 hours post-administration) worked out at 67 mm Hg. Moreover, the “maximum decrease in MAP” value in data set [1] (10 mg/kg ig, 23 hours post-administration) is recorded as 66 mm Hg. Besides, in data set [2], the “identified as metabolite of the compound of Example 3 of U.S. Patent No. 5,149,599” value is “significant metabolites”; the “presence of metabolite (duration and amount), Example 4 compared with Example 6” value was “present significantly longer and in greater amounts than the latter”.

With `Cc1nc(CO)nc2c1CCC(=O)N2Cc1ccc(-c2ccccc2-c2nnn[nH]2)cc1` [Example 2, 2-Hydroxymethyl-4-methyl-8-[2'-(1H-tetrazol-5-yl)biphenyl-4-ylmethyl]-5,8-dihydro-6H-pyrido[2,3-d]pyrimidin-7-one], the “lowered the A II dependent blood pressure by an average of” value in the data set with A II-infused rat model was found to be 30%.

Consider `Cc1nc(C)c2c(n1)N(Cc1ccc(-c3ccccc3-c3nn[nH]n3)cc1)C(=O)CC2O` (stereo not shown) [Example 6, 5-Hydroxy-2,4-dimethyl-8-[2'-(1H-tetrazol-5-yl)-biphenyl-4-ylmethyl]-6,8-dihydro-5H-pyrido[2,3-d]pyrimidine-7-one Hydrate 0.4 Etherate], for which the “maximum decrease in MAP” value in data set [1] (10 mg/kg ig, 9 hours post-administration) amounted to 71 mm Hg. Moreover, the “identified as metabolite of the compound of Example 3 of U.S. Patent No. 5,149,599” value in data set [2] was “significant metabolites”.
